From patent US10342846B2, “Nanoparticle drug delivery systems” (University of Notre Dame du Lac, priority 2013, dated 2019)
Entries after “also recorded” stand apart in the source; their conditions may differ. Read-outs that look alike come from different tables or passages of the source.

Columns and labels:
[1] = MM xenograft mouse model, body weight / systemic toxicity; type: in vivo, C.B.-17 SCID mice; details: 1 mg/kg bortezomib equivalent, intravenous, days 1, 4, 8, and 11
Protocol: MM Xenograft Mouse Model. C.B.-17 SCID mice (Harlan Laboratories) were irradiated with 150 rad and were inoculated subcutaneously with 5×10^6 NCI-H929 cells. When tumors were palpable, mice were distributed into 6 groups of 5 mice and were treated intravenously with the various bortezomib pro-drugs, free bortezomib, or vehicle (PBS), on days 1, 4, 8, and 11. Animals were monitored for body weight and tumor volume.
Liposomal Pro-Drugs Inhibit Tumor Growth with Reduced Systemic Toxicity In Vivo. […] Thus, in vivo studies were performed on C.B-17 SCID mice injected with NCI-H929 tumors to evaluate the efficacy of the liposomal pro-drugs in inhibiting tumor growth and limiting toxicity. The mice were divided into six groups (control, free bortezomib, and one group for each pro-drug) of five mice. The mice were monitored for body weight and tumor volume every other day. When the tumors became palpable, intravenous injections of the respective bortezomib formulations at a dose of 1 mg/kg bortezomib equivalent nanoparticles were performed on days 1, 4, 8, and 11.

[2] = tested on: MCF7 cells (very low HER2 expression); experiment: Cellular binding assay, flow cytometry (MCF7); details: fluorescein labeled peptide, negative control cell line
Protocol: (§1) HER2 or VLA-4 Expression Analysis and Cell-Based Peptide Binding Assays. For antibody binding assays, cells were incubated with the primary antibody in binding buffer (1.5% BSA in PBS pH 7.4) on ice for 1 hour and were washed twice. Fluorescein conjugated secondary antibody was added for 1 hour on ice, samples were washed, and analyzed on Guava easyCyte 8HT flow cytometer (Millipore). For cell-based peptide binding assays, cells were incubated with increasing concentrations of fluorescein-conjugated peptides for 2 hours on ice. Samples were washed twice and analyzed on Guava easyCyte 8HT flow cytometer.

[3] = molecular target: extracellular HER2 domain (Homo sapiens, UniProt P04626); details: reported by Berezov et al., recombinant soluble HER2 protein; cited from earlier work
[4] = tested on: NCI-H929 myeloma cells (VLA-4 expressing); experiment: Cell-based peptide binding assay (NCI-H929); details: fluorescein labeled peptide, flow cytometry, read-out: apparent Kd
Protocol: as §1
Receptor Expression Analysis and Cell-Based Peptide Binding Assays. For VLA-4 expression assays, cells were incubated with anti-CD49d (phycoerythrin) or anti-CD29 (fluorescein) antibodies (BD Biosciences, San Jose, Calif.) in binding buffer (1.5% BSA in PBS pH 7.4) on ice for 1 hour and were washed twice. For HER2 expression assays, cells were incubated with primary antibody in binding buffer on ice for 1 hour and washed twice. Fluorescein conjugated secondary antibody was added for 1 hour on ice, samples were washed, and analyzed on Guava easyCyte 8HT flow cytometer (Millipore). Isotype matched antibodies were used as negative controls. […] Samples were washed twice and analyzed on Guava easyCyte 8HT flow cytometer.

[5] = tested on: VLA-4-overexpressing multiple myeloma cells; experiment: In vitro nanoparticle uptake, result stated jointly for the myeloma lines; type: cell-based; details: competition experiment, NCI-H929 and MM.1S
Protocol: In Vitro Liposome Uptake and Binding Assays. 1×10^5 cells/well were plated 24 hours prior to each experiment in a 24 well dish. Liposomes were added at 100 μM phospholipid concentration and incubated for 3 hours at 37° C. 0.2% fluorescein PE was added as a fluorescent marker to each liposomal formulation. For adherent cells, after incubation, cells were washed 3 times with PBS, trypsinized, and analyzed via flow cytometry. For suspension cells, after incubation, cells were washed 3 times with PBS and analyzed via flow cytometry. For binding assays, adherent cells were scraped from the surface of a confluent dish, placed in growth media, and incubated on ice for 30 minutes. Liposomes were added at variable concentrations and incubated for 2 hours on ice. After incubation, cells were washed 3 times with PBS and analyzed via flow cytometry.
In Vitro Nanoparticle Uptake Assays. 1×10^5 cells/well were plated 24 hours prior to each experiment in a 24 well dish. Nanoparticles were added at 100 μM phospholipid concentration and incubated for 3 hours at 37° C. […] For suspension cells, after incubation, cells were washed 3 times with PBS and analyzed via flow cytometry. For adherent cells, after incubation, cells were washed 3 times with PBS, trypsinized, and analyzed via flow cytometry.

[6] = tested on: MM.1S myeloma cells (VLA-4 expressing); experiment: Cell-based peptide binding assay (MM.1S); details: fluorescein labeled peptide, MM.1S cells, flow cytometry; read-out: apparent Kd
Protocol: Receptor Expression Analysis and Cell-Based Peptide Binding Assays. For VLA-4 expression assays, cells were incubated with anti-CD49d (phycoerythrin) or anti-CD29 (fluorescein) antibodies (BD Biosciences, San Jose, Calif.) in binding buffer (1.5% BSA in PBS pH 7.4) on ice for 1 hour and were washed twice. For HER2 expression assays, cells were incubated with primary antibody in binding buffer on ice for 1 hour and washed twice. Fluorescein conjugated secondary antibody was added for 1 hour on ice, samples were washed, and analyzed on Guava easyCyte 8HT flow cytometer (Millipore). Isotype matched antibodies were used as negative controls. For cell-based peptide binding assays, cells were incubated with increasing concentrations of fluorescein-conjugated peptides for 2 hours on ice. Samples were washed twice and analyzed on Guava easyCyte 8HT flow cytometer.

Q: Which “systemic toxicity” value [1] does the source give for CC(C)C[C@H](NC(=O)[C@H](Cc1ccccc1)NC(=O)c1cnccn1)B(O)O [free bortezomib, bortezomib] here?
A: moribundity on day 7; also recorded: moribundity by day 7

Q: Which results are given for YCDGFYACYMDV [HER2-pep]?
A: binding to MCF7 cells [2]: minimal binding; Kd [3]: 0.15 µM

Q: What does the source list for YCDPC [VLA4-pep]?
A: Kd ([4]; listed as VLA4pep): 0.25 µM; Kd [4]: ~0.25 µM; inhibition of uptake of VLA-4-targeted liposomes by excess free peptide ([5]; LPVLA4pep(K3)): efficient inhibition of uptake; inhibition of uptake of VLA-4-targeted micelles by free peptide ([5]; micelles with VLA4pep(K3)): significant inhibition; Kd [6]: 0.25 µM
